Laboratory results from PMC9739371, “Deciphering the Binding of the Nuclear Localization Sequence of Myc Protein to the Nuclear Carrier Importin α3” (International Journal of Molecular Sciences, 2022).

Experiment: Translational diffusion NMR (DOSY)
Type: physicochemical
Details: 500 MHz, 10 °C, 1.8 mM peptide, 100 mM sodium phosphate pH 7.0, 100% D2O, 1% dioxane as reference
Procedure: The NMR spectra were acquired at 10 °C on a Bruker Avance 500 MHz spectrometer (Bruker GmbH, Karlsruhe, Germany), equipped with a triple resonance probe and z-pulse field gradients. Spectra were processed with Bruker TopSpin 2.1 (Bruker GmbH, Karlsruhe, Germany). […] Spectra were calibrated with 3-(trimethylsilyl) propionic acid-2,2,3,3-^2H4-sodium salt (TSP), by considering pH-dependent changes of its chemical shifts; the probe temperature was calibrated with pure methanol [49].
Measurements of the translational self-diffusion coefficient, D, were performed with the pulsed-gradient spin-echo sequence in the presence of 100% D2O. […] The gradient strength was varied in sixteen linear steps between 2% to 95% of the total power of the gradient coil. Gradient strength was calibrated by using the value of D for the residual proton water signal in a sample containing 100% D2O, in a 5-mm tube [51]. The length of the gradient was 2.5 ms; the time between two pulse gradients in the pulse sequence was 250 ms; and the recovery delay between the bipolar gradients was 100 µs. […] A final concentration of 1% of dioxane, which was assumed to have a hydrodynamic radius Rh = 2.12 Å [51], was added to the solution.

## C1COCCO1 [dioxane]
  translational diffusion coefficient D: 5.3 ± 0.6 × 10^−6 cm^2 s^−1
